Assay results taken from article PMC8657848, “Developmental Toxicity and Biotransformation of Two Anti-Epileptics in Zebrafish Embryos and Early Larvae” (International Journal of Molecular Sciences, 2021).

Experiments:
zebrafish embryos/larvae [1] = assay: Quantification of metabolites E-CBZ and HPPH in pooled culture medium exposed to zebrafish embryos/larvae; format: in vivo, Danio rerio; settings: 250 µM CBZ
Description: The control and test mediums were also kept in the same incubator until the last time point of the experiment. The embryo media were renewed every 48 h, to avoid medium acidification and oxygen deprivation. At each medium change and at the last time point of the experiment (Figure 9), the media exposed to the embryos were pooled and kept at −80 °C for further use (n = 3).

zebrafish embryos/larvae [2] = assay: Quantification of parent compounds and metabolites in whole zebrafish embryos/larvae homogenate extracts; settings: for Uptake by embryos and larvae (quantified in homogenate extracts): CBZ, PHE 31.25, 85, 250 µM, E-CBZ, HPPH 250 µM
Description: In three biological replicates (n = 3; 20 embryos/replicate) and at the two desired developmental stages (24 and 120 hpf), embryos/larvae of each test and control group were pooled and then rinsed three times with cold EMS (4 °C) on a mesh (Cell strainer […] Nylon, Steril Falcon®, Durham, NC, USA). Embryos collected at 24 hpf were not dechorionated, as the focus of this study was on the potential formation of the mammalian active metabolites. Moreover, it was argued that the chorion was more permeable than previously believed and that dechorionation could increase background malformations during gross morphology investigation. Embryos/larvae were then transferred and kept for five min in cryotubes (Cryo.S™, Greiner Bio-One, Frickenhausen, Germany) filled with 500 µL of cold embryo medium (4 °C), before being snap-frozen in liquid nitrogen and kept, for later use, at −80 °C (Figure 9).
The extraction preparation was based on Brox et al. for two developmental stages, 24 and 120 hpf, and performed in triplicate for each test group (n = 3, 20 embryos/replicate) (Figure 9). On the day of the extraction procedure, frozen samples (see Section 4.2.1) were thawed on ice and EMS was removed. A volume of 500 µL of acetonitrile (ACN) (purity ≥99.9%, Merck, Darmstadt, Germany) containing the internal standard lamotrigine, LAMO, (≥98% purity, CAS number: 84057-84-1, Sigma-Aldrich, Merck, Darmstadt, Germany) was then added to each tube to reach a final concentration of 0.39 µM, after dilution in HPLC-grade water. Samples were vortexed (VM3, CAT, Germany) for 5 min at a 2000 rotation/min speed, before being placed on ice and ultrasonicated with an Ultrasonic Processor VCX 130 (Sonics, Newtown, CT, USA) fifteen times for 30 s at an 80% amplitude with pause intervals of 30 s. Supernatants of the samples were then centrifuged (Centrifuge 5424 R, Eppendorf, Hamburg, Germany) twice at 4 °C for 15 min at 15,000× g, snap-frozen and kept for later use at −80 °C, whereas the pellets were discarded.
First, both sample types were processed to reach a final percentage of 30% ACN and a concentration of 0.39 µM of the IS, LAMO. […] Calibration curves and quality controls were prepared in their corresponding reaction mixtures to minimize matrix or extraction process effects. The analytical investigations were performed on an Acquity Ultra Performance Liquid Chromatography (UPLC) with sample manager, binary solvent manager, diode array detector and a triple-quadrupole detector (ACQUITY UPLC-triple quadrupole detector, Waters, Milford, CT, USA) equipped with the Masslynx software (version 4.1). […] Separation was accomplished in 6 min, using a flow rate of 0.5 mL/min. The solvent gradient program was set as follows: 85% A/15% B (0–0.5 min); 85–0% A/15–100% B (0.5–3.3 min); 0% A/100% B (3.3–4.4 min); 0–85% A/100–15% B (4.4–4.5 min); 85% A/15% B (4.5–6 min). The column was set at 40 °C and the injection volume was 10 μL. For the mass spectrometric conditions, the following parameters were used in positive ionization mode: capillarity voltage 3.5 kV, extractor voltage 3 V, cone voltage 35 V, Rf lens 0.1 V. The source temperature was set at 120 °C and the desolation temperature at 450 °C. The desolvation gas flow was fixed at 1000 L/h and cone gas flow at 50 L/h. […] The limit of quantification, linearity, matrix effects and specificity of the method developed for each compound were validated based on the European Medicines Agency (EMA) guidelines for bioanalytical method validation and the study from Kislyuk et al..
For the quantification of the metabolites E-CBZ and HPPH, the samples processed were the microsomal incubation reactions (see Section 4.3.2), the zebrafish culture and stock medium (4.2.1) and the zebrafish embryos/larvae extracts (see Section 4.2.3). Samples from the different experiments were also prepared, as for the parent compounds, to reach a final percentage of 30% ACN and a concentration of 0.39 µM of the IS, LAMO.

[3] = parameters: method as in PMID 20832863; settings: after 70.5 h of exposure (time point 72 hpf); cited from earlier work
[4] = Microsomal incubation with CBZ and PHE, supersomes (negative control); format: in vitro ADME; settings: data not shown
Description: Moreover, positive and negative controls were included: pooled human liver microsomes (Gibco™, HMMCPL–PL050B, Thermo Fisher Scientific) and Insect Cell Control Supersomes™ (lot number: PL050 C-B, 456201, Corning Incorporated, Corning, NY, USA), respectively. Based on Oziolor et al., microsomal reactions were initiated after adding the substrate solution at a concentration of 100 µM (see Supplementary Table S1) in a mixture of 100 mM K3PO4 buffer (Corning® Gentest™, NY, USA) of pH 7.4, 5% and 1% of NADPH regenerating system reagents A and B, respectively (Corning, Woburn, MA, USA) and 200 µg/mL of microsomal protein, for a total volume of 500 µL. The reactions were performed at 28.5 ± 0.3 °C until the time point of interest. […] The reactions were stopped at two time points (5 and 240 min) by sampling 40 µL, in duplicate, of the main microsomal reaction and mixed with 120 µL cold (4 °C) acetonitrile (ACN) (Merck, Darmstadt, Germany) already containing the internal standard (IS), LAMO. The samples were then centrifuged for 10 min at 10,000× g to precipitate the proteins, which were denatured in cold ACN.

SMILES | Increase of E-CBZ in culture medium between 96 and 120 hpf (zebrafish embryos/larvae [1]) | E-CBZ in embryo/larva extracts after exposure to CBZ (zebrafish embryos/larvae [2]; 31.25 µM CBZ, 24 and 120 hpf) | Internal concentration, fold lower at 120 hpf than at 24 hpf (zebrafish embryos/larvae [2]; 85 µM) [fold] | Uptake by embryos and larvae (quantified in homogenate extracts) (zebrafish embryos/larvae [2]; 24 and 120 hpf) | Average quantified concentration higher than the nominal concentration [3] [%] | HPPH in embryo/larva extracts after exposure to PHE (zebrafish embryos/larvae [2]; 24 hpf and 120 hpf, any samples) | Internal concentration, times higher at 24 hpf than at 120 hpf (zebrafish embryos/larvae [2]; all concentrations) [times] | Decrease of parent compound after 240 min (pilot investigation) [4]
NC(=O)N1c2ccccc2C=Cc2ccccc21 [CBZ, carbamazepine] | six-fold | could not be detected | 3.4 | taken up | 22.3 |  |  | 
O=C1NC(=O)C(c2ccccc2)(c2ccccc2)N1 [PHE, phenytoin] |  |  |  | taken up |  | could not detect | ~5 | No decrease
